Calls of active or inactive are those of the source. The calls are words filed in the database; no cut-off is given here.
Legend:
[1] = tested on: BV-2; test: Inhibition of LPS-stimulated COX2 protein expression in mouse BV2 cells pre-incubated for 3 hrs before LPS-stimulation for 24 hrs by Western blot method; type: functional, cell-based
[2] = tested on: RAW264.7; test: Anti-inflammatory activity in mouse RAW264.7 cells assessed as reduction in LPS-induced IL-1beta mRNA expression pre-incubated for 3 hrs before LPS-stimulation for 12 hrs by RT-qPCR method; type: functional, cell-based
[3] = tested on: BV-2; test: Anti-inflammatory activity in mouse BV2 cells assessed as reduction in LPS-induced TNFalpha mRNA expression pre-incubated for 3 hrs before LPS-stimulation for 12 hrs by RT-qPCR method; type: functional, cell-based
[4] = tested on: BV-2; test: Cytotoxicity in mouse BV2 cells at 10 to 80 uM by MTT assay; type: cell-based; conditions: bv-2, 80 µM
[5] = tested on: RAW264.7; test: Inhibition of LPS-stimulated COX2 protein expression in mouse RAW264.7 cells pre-incubated for 3 hrs before LPS-stimulation for 24 hrs by Western blot method; type: functional, cell-based
[6] = tested on: RAW264.7; test: Anti-inflammatory activity in mouse RAW264.7 cells assessed as reduction in LPS-induced TNFalpha mRNA expression pre-incubated for 3 hrs before LPS-stimulation for 12 hrs by RT-qPCR method; type: functional, cell-based
[7] = species on record: Mus musculus; test: Inhibition of LPS-stimulated NFkappaB signalling activation in mouse RAW264.7 cells assessed as reduction in IkappaB phosphorylation pre-incubated for 3 hrs before LPS-stimulation for 60 mins by Western blot method; type: cell-based
[8] = tested on: BV-2; test: Anti-inflammatory activity in mouse BV2 cells assessed as reduction in LPS-induced nitric oxide production pre-incubated for 3 hrs before LPS-stimulation for 24 hrs by Griess reagent based ELISA; type: functional, cell-based
[9] = species on record: Mus musculus; test: Inhibition of LPS-stimulated NFkappaB DNA binding activity in mouse BV2 cells assessed pre-incubated for 3 hrs before LPS-stimulation for 60 mins by ELISA; type: cell-based
[10] = species on record: Mus musculus; test: Inhibition of LPS-stimulated NFkappaB signalling activation in mouse BV2 cells assessed as reduction in IkappaB phosphorylation pre-incubated for 3 hrs before LPS-stimulation for 60 mins by Western blot method; type: cell-based
[11] = species on record: Mus musculus; test: Inhibition of LPS-stimulated NFkappaB p65/p50 nuclear translocation in mouse BV2 cells assessed as increase in cytosolic p65/p50 protein level at 10 to 40 uM pre-incubated for 3 hrs before LPS-stimulation for 60 mins by Western blot method; type: cell-based
[12] = tested on: RAW264.7; test: Anti-inflammatory activity in mouse RAW264.7 cells assessed as reduction in LPS-induced IL6 mRNA expression pre-incubated for 3 hrs before LPS-stimulation for 12 hrs by RT-qPCR method; type: functional, cell-based
[13] = tested on: BV-2; test: Anti-inflammatory activity in mouse BV2 cells assessed as reduction in LPS-induced IL6 mRNA expression pre-incubated for 3 hrs before LPS-stimulation for 12 hrs by RT-qPCR method; type: functional, cell-based
[14] = tested on: BV-2; test: Anti-inflammatory activity in mouse BV2 cells assessed as reduction in LPS-induced PGE2 production pre-incubated for 3 hrs before LPS-stimulation for 24 hrs; type: functional, cell-based
[15] = tested on: BV-2; test: Inhibition of LPS-stimulated iNOS protein expression in mouse BV2 cells pre-incubated for 3 hrs before LPS-stimulation for 24 hrs by Western blot method; type: functional, cell-based
[16] = tested on: BV-2; test: Anti-inflammatory activity in mouse BV2 cells assessed as reduction in LPS-induced IL12 mRNA expression pre-incubated for 3 hrs before LPS-stimulation for 12 hrs by RT-qPCR method; type: functional, cell-based
[17] = species on record: Mus musculus; test: Inhibition of LPS-stimulated NFkappaB DNA binding activity in mouse RAW264.7 cells assessed pre-incubated for 3 hrs before LPS-stimulation for 60 mins by ELISA; type: cell-based
[18] = tested on: RAW264.7; test: Anti-inflammatory activity in mouse RAW264.7 cells assessed as reduction in LPS-induced nitric oxide production pre-incubated for 3 hrs before LPS-stimulation for 24 hrs by Griess reagent based ELISA; type: functional, cell-based
[19] = species on record: Mus musculus; test: Inhibition of LPS-stimulated NFkappaB p65/p50 nuclear translocation in mouse RAW264.7 cells assessed as increase in cytosolic p65/p50 protein level at 10 to 40 uM pre-incubated for 3 hrs before LPS-stimulation for 60 mins by Western blot method; type: cell-based
[20] = tested on: RAW264.7; test: Cytotoxicity in mouse RAW264.7 cells at 10 to 80 uM by MTT assay; type: cell-based; conditions: raw264.7, 80 µM
[21] = tested on: BV-2; test: Anti-inflammatory activity in mouse BV2 cells assessed as reduction in LPS-induced IL-1beta mRNA expression pre-incubated for 3 hrs before LPS-stimulation for 12 hrs by RT-qPCR method; type: functional, cell-based
[22] = tested on: RAW264.7; test: Anti-inflammatory activity in mouse RAW264.7 cells assessed as reduction in LPS-induced PGE2 production pre-incubated for 3 hrs before LPS-stimulation for 24 hrs; type: functional, cell-based
[23] = tested on: RAW264.7; test: Inhibition of LPS-stimulated iNOS protein expression in mouse RAW264.7 cells pre-incubated for 3 hrs before LPS-stimulation for 24 hrs by Western blot method; type: functional, cell-based
[24] = tested on: RAW264.7; test: Anti-inflammatory activity in mouse RAW264.7 cells assessed as reduction in LPS-induced IL12 mRNA expression pre-incubated for 3 hrs before LPS-stimulation for 12 hrs by RT-qPCR method; type: functional, cell-based

Question: With `C/C=C/[C@@H]1C=CC(=O)[C@H](O)[C@]12C(=O)O[C@H](C)[C@@H]2O` as the compound, how does the inhibition [1] read?
Answer: Its inhibition is “Dose-dependent effect”.

Question: What about the inhibition [2] of the same compound?
Answer: The inhibition was “Dose-dependent effect”.

Question: And the inhibition [3]?
Answer: The inhibition was “Dose-dependent effect”.

Question: What about the Activity [4] of the same compound?
Answer: The Activity was “Non-Toxic”.

Question: What about the inhibition [5] of the same compound?
Answer: Its inhibition is “Dose-dependent effect”.

Question: What about the inhibition [6] of the same compound?
Answer: Its inhibition is “Dose-dependent effect”.

Question: What about the inhibition [7] of the same compound?
Answer: Its inhibition is “Dose-dependent effect”.

Question: What about the IC50 [8] of the same compound?
Answer: Its IC50 is 21.9 µM.

Question: What about the inhibition [8] of the same compound?
Answer: Its inhibition is “Dose-dependent effect”.

Question: And the inhibition [9]?
Answer: The inhibition was “Dose-dependent effect”.

Question: What about the inhibition [10] of the same compound?
Answer: Its inhibition is “Dose-dependent effect”.

Question: And the inhibition [11]?
Answer: Its inhibition is “Active”.

Question: What about the inhibition [12] of the same compound?
Answer: Its inhibition is “Dose-dependent effect”.

Question: What about the inhibition [13] of the same compound?
Answer: Its inhibition is “Dose-dependent effect”.

Question: And the IC50 [14]?
Answer: Its IC50 is 27.6 µM.

Question: What about the inhibition [15] of the same compound?
Answer: Its inhibition is “Dose-dependent effect”.

Question: And the inhibition [16]?
Answer: The inhibition was “Dose-dependent effect”.

Question: What about the inhibition [17] of the same compound?
Answer: The inhibition was “Dose-dependent effect”.

Question: And the IC50 [18]?
Answer: Its IC50 is 23.5 µM.

Question: And the inhibition [18]?
Answer: The inhibition was “Dose-dependent effect”.

Question: And the inhibition [19]?
Answer: The inhibition was “Active”.

Question: And the Activity [20]?
Answer: The Activity was “Non-Toxic”.

Question: And the inhibition [21]?
Answer: The inhibition was “Dose-dependent effect”.

Question: What about the IC50 [22] of the same compound?
Answer: The IC50 was 22.8 µM.

Question: What about the inhibition [23] of the same compound?
Answer: Its inhibition is “Dose-dependent effect”.

Question: What about the inhibition [24] of the same compound?
Answer: Its inhibition is “Dose-dependent effect”.
